Test results as given in PMC9679916 (Biomacromolecules, 2021).
Bridges are numbered along the chain shown (N, C = ends). Where no end group is shown, it is not given here.

Legend:
[1] = test system: deep vein thrombi in inferior vena cava; experiment: Murine DVT model; assay type: in vivo, mouse; conditions: vs PBS group, 3 h postinjection
[2] = target: T1, mouse MRP-14 (mS100A9) (Mus musculus, UniProt P31725); experiment: ELISA-based binding affinity of MRP-14-targeted TMV, mouse protein; conditions: for Kd: read-out: KD (nM) mouse MRP-14, ELISA, mS100A9 2 μg/mL coated, TMV 0-5 μg/mL, anti-TMV detection, single-site binding model, estimated
T1 sequence (P31725 1-113): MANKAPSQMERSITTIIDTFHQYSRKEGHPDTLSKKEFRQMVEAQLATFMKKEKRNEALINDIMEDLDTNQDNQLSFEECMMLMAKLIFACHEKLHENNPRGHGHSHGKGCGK

[3] = target: T2, human MRP-14 (hS100A9) (Homo sapiens, UniProt P06702); experiment: ELISA-based binding affinity of MRP-14-targeted TMV, human protein; conditions: read-out: KD (nM) human MRP-14, hS100A9 2 μg/mL coated, TMV 0-5 μg/mL, anti-TMV detection, single-site binding model, estimated
T2 sequence (P06702 1-114): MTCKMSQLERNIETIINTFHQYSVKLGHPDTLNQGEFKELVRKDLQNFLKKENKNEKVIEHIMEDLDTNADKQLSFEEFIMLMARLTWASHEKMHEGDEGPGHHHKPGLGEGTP

[4] = target: T3, His-tagged MRP-14 (myeloid related protein 14) (human, UniProt P06702 1-114); experiment: SPR
T3 sequence: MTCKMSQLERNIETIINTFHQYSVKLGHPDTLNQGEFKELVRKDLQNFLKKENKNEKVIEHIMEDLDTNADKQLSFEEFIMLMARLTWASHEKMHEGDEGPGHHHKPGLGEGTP

[5] = target: T4, MRP-8/14 heterodimer (untagged MRP-8 premixed 1:1 with His-tagged MRP-14) (human | , UniProt P06702;P05109); experiment: SPR
T4 sequence 1: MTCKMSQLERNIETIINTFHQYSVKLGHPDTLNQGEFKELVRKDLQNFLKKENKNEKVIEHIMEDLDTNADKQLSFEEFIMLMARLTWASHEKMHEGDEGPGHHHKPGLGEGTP
T4 sequence 2: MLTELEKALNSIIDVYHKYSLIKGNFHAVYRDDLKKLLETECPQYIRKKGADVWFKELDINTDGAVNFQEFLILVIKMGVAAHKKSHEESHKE

ASSHIHHGGGS-C [CPMV-MTP2]
reduction in thrombus weight and area [1]: 50%

ACNSVHQHHCGGGS-N3 (disulfide) [TMV-MTP6]
binding affinity, times stronger toward mouse than human MRP-14 ([2]; ratio of ELISA KD values, mouse vs human MRP-14): ~ 4 times
Kd [2]: 2.6 nM
Kd [3]: 11.4 nM

ASSHIHHGGGS-C [TMV-MTP2]
Kd [2]: 11.9 nM
Kd [3]: 13.1 nM

B1: MTP3 synthetic peptide with GGGS spacer (peptide)
peptide: HNHMADPGGGS-NH2
Kd [4]: 117 µM

B2: MTP6 synthetic peptide with GGGS spacer (peptide)
peptide: ACNSVHQHHCGGGS
Kd [4]: 39.6 µM
Kd [5]: 57.6 µM

B3: MTP5 synthetic peptide with GGGS spacer (peptide)
peptide: ACNSHRHGACGGGS-NH2
modifications: disulfide 2-10 (inferred)
Kd [4]: 67.6 µM
